Laboratory results: PMC9365693 (Nature, 2022)
Like-named read-outs stand apart in the source and are kept apart here.

Tests used:
[1] = Isothermal titration calorimetry (ITC), lipid II-containing LUVs titrated into drug; type: binding; design: dG / dH / -TdS: unit not given here
Protocol: Isothermal titration calorimetry
For isothermal titration calorimetry (ITC) measurements large unilamellar vesicles (LUVs) containing lysine-lipid II were prepared by incorporating 2 mol% of lysine-lipid II in DOPC from the stock solution. The lipids were dried under a nitrogen stream and hydrated with buffer (20 mM HEPES and 50 mM NaCl, pH 7) to a lipid-phosphate concentration of 20 mM. Finally, unilamellar vesicles were obtained after ten rounds of extrusion through 200-nm membrane filters (Whatman Nuclepore, Track-Etch Membranes). ITC experiments were performed with the Affinity ITC (TA Instruments-Waters LLC) to determine interaction between LUVs and teixobactin. […] The samples were degassed before use. […] The number of injections was 23. Experiments were performed at 37 °C and analysed using the Nano Analyze Software (TA instruments-Water LLC). All experiments were performed in triplicates. Control experiments were performed with lipid II-free DOPC LUVs. The independent model was used to determine the interaction between teixobactin and lipid II. ITC data of R4L10-teixobactin were previously published.

Staphylococcus simulans = assay: DiSC membrane depolarization (ion leakage) assay, S. simulans; type: cell-based; conditions: DiSC-2 probe, Gram-positive bacteria (Fig. 4h and Extended Data Fig. 10b,c), 20 °C, pH 7.2, 2 min before and 6 min after antibiotic; triplicates
Protocol: The bacterial cultures were grown overnight at 30 °C in TSB media for S. simulans and at 37 °C in LB medium for Bacillus subtilis. Secondary cultures were grown for 3 h until OD600 = 0.5 was reached. The bacterial cells were then centrifuged at 1,500g for 10 min at 4 °C and washed twice with 10 ml of buffer (10 mM Tris, 100 mM NaCl, 1 mM MgCl2 and 0.5% glucose, pH 7.2). The bacterial cells were resuspended to an OD600 = 10 in the buffer and used for the experiment. […] For the assay, 1 μl of the bacterial suspension was added to 1 ml of buffer. For the ion leakage assays, 1 μl of the DiSC-2 probe from a 1 mM stock was added to the cuvette and the fluorescence was measured between a wavelength of 650 nm and 670 nm (bandwidth of […]) for 2 min before the addition of the antibiotic and 6 min after. For the Sytox green leakage assays, 1 μl of the Sytox green probe from a 0.25 mM stock was added to the cuvette and the fluorescence was measured between a wavelength of 500 nm and 520 nm (bandwidth of […]) for 2 min before the addition of the antibiotic and 6 min after. All experiments were performed in triplicates.

[2] = Intermolecular teixobactin–teixobactin ssNMR contacts (2D 13C13C); conditions: 2D 13C13C ssNMR, 600 ms transfer, lipid II-bound
Description: T1rho trajectories were fit to single exponentials.
Solid-state NMR ^13C-^13C PARISxy spectra of the ^13C,^15N-teixobactin – Lipid II complex in membranes show several cross-peaks (in red) that cannot be intramolecular contacts because this would require magnetization transfer over more than 10 Å. Rather, these cross-peaks correspond to intermolecular contacts between different teixobactin molecules and agree with the formation of antiparallel β-sheets.

[3] = for interaction with lipid II moieties (in words): ssNMR, DOPC liposomes with 4 mol% lysine-lipid II, pH 7.2
Protocol: Multi-lamellar vesicles of DOPC doped with 4 mol% lysine-lipid II in buffer (40 mM Na2PO4 and 25 mM NaCl, pH 7.2) were collected by centrifugation (60,000g) and loaded into ssNMR rotors. […] For 1.3-mm rotors, samples contained 200 nmol of antibiotic for unlabelled lipid II.
^1H-detected ssNMR experiments were performed at 60 kHz magic angle spinning (MAS) using magnetic fields of 700 and 950 MHz (^1H frequency). […] T1rho trajectories were fit to single exponentials. 2D CC experiments were acquired with PARISxy[33],[53] recoupling (m = 1) at 950 MHz magnetic field and 18 kHz MAS. A 2D CαN experiment was acquired at 700 MHz, 12 kHz MAS and 5 ms N to C cross-polarization transfer time. […] The scalar TOBSY[35] experiment was acquired at 700 MHz using 8 kHz MAS with 6 ms CC mixing time. The mobility edited H(H)C experiment[25] was measured at 700 MHz with 16.5 kHz MAS at a temperature of 300 K using a T2 relaxation filter of 2.5 ms. 1D MAS ^31P experiments were acquired at 500 MHz magnetic field and 12 kHz MAS. 2D HP experiments were acquired at 800 MHz and 60 kHz MAS using 1 and 2 ms ^1H to ^31P cross-polarization contact time. Static ^31P ssNMR experiments were acquired at 500 MHz magnetic field without sample spinning.

Gram-positive pathogens = conditions: cited from earlier work
Protocol: Antibiotics that use novel mechanisms are needed to combat antimicrobial resistance[1]–[3]. […] Here we unravel the mechanism of teixobactin at the atomic level using a combination of solid-state NMR, microscopy, in vivo assays and molecular dynamics simulations. […] (Fig. 4h and Extended Data Fig. 10b,c).

[4] = source data Figure 3e, ITC, Avg of Expt 1-3
[5] = source data Figure 3e, ITC, Expt 1
[6] = source data Figure 3e, ITC, Expt 2
[7] = source data Figure 3e, ITC, Expt 3

## teixobactin
[1]; ITC, DOPC LUVs with 2 mol% lysine-lipid II, 20 mM HEPES 50 mM NaCl pH 7, 30 μM drug, 37 °C, mean of three experiments, b18 prints ± 0.008
  Kd: 0.08 µM
[1]; source data Figure 3e, ITC pH 7, 37 °C, Expt 1
  Kd: 0.0674 µM
[1]; source data Figure 3e, ITC pH 7, 37 °C, Expt 2
  Kd: 0.092 µM
[1]; source data Figure 3e, ITC pH 7, 37 °C, Expt 3
  Kd: 0.0689 µM
[1]; [4]
  dG: -42.29
  dH: -35.03
[1]; [5]
  dG: -42.58
  dH: -34.03
[1]; [6]
  dG: -41.78
  dH: -37.92
[1]; [7]
  dG: -42.52
  dH: -33.14
[1]; source data Figure 3e, ITC, Plot, avg
  -TdS: -7.26
Staphylococcus simulans
  decrease in membrane potential / depolarization (in words): sharp decrease in the membrane potential
[2]
  antiparallel β-sheet formation (in words): strongly supports that natural teixobactin also forms antiparallel β-sheets
[3]; 2D 13C13C PARISxy, 13C,15N-teixobactin and 13C,15N-lipid II in DOPC liposomes
  number of interfacial End10–MurNAc ssNMR contacts: 11
[3]; listed as Teixobactin
  interaction with lipid II moieties (in words): did not bind to the pentapeptide of lipid II
[3]; listed as natural teixobactin
  interaction with lipid II moieties (in words): tight and specific interactions
Gram-positive pathogens; MRSA, S. pneumoniae, vancomycin-resistant Enterococci
  antibacterial activity (in words): broad activity against multidrug-resistant Gram-positive pathogens
Gram-positive pathogens
  bacterial killing compared with vancomycin (in words): more effective in killing bacteria than vancomycin
  resistance (in words): lack of resistance
